Laboratory results as given in ChEMBL document CHEMBL1126386, “-alkoxyphenol leukotriene B4 receptor antagonists: effect of a chroman carboxylic acid” (Bioorg Med Chem Lett, 1992).

Columns and labels:
Cavia porcellus = assay: Compound was tested for antagonizing effect of LTB4-induced gas trapping in the guinea pig when administered intravenously; format: functional; details: iv
Leukotriene B4 receptor = Leukotriene B4 receptor (Homo sapiens, UniProt Q9NPC1+Q15722); assay: Inhibition of LTB4-induced CD11b/CD18 integrin up-regulation in human neutrophils; format: functional

IC50 (Leukotriene B4 receptor): 195 nM
Compound: CCCc1c(OCCCOc2cc(O)c(OCC)cc2CC)ccc2c1OC(C(=O)O)CC2 (configuration not stated)
ED50 (Cavia porcellus): 0.012 mg/kg
